Source: ChEMBL document CHEMBL1156472, “Structural variation governs substrate specificity for organic anion transporter (OAT) homologs. Potential remote sensing by OAT family members” (J Biol Chem, 2007)

biological target: T1, Solute carrier family 22 member 20 (Mus musculus, UniProt Q80UJ1); assay: Activity of mouse Oat6 expressed in Xenopus oocytes assessed as drug uptake; assay type: cell-based; conditions: oocyte
T1 sequence (Q80UJ1 whole entry): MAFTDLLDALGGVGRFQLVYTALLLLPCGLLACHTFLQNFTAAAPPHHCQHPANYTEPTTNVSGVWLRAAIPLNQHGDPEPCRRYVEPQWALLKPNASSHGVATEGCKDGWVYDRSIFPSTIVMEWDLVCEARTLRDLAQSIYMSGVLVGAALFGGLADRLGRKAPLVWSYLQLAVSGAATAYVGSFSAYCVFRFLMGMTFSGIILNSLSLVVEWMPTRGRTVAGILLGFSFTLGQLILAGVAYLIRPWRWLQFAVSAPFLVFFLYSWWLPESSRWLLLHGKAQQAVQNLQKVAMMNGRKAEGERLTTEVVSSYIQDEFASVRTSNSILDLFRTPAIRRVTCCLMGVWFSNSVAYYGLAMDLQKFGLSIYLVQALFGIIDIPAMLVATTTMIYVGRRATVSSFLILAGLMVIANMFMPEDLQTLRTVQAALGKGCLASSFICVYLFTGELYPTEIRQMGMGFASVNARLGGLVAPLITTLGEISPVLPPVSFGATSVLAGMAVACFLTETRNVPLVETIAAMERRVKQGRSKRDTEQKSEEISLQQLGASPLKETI

Question: `C[C@@H]1Cc2c(Cl)cc(C(=O)N[C@@H](Cc3ccccc3)C(=O)O)c(O)c2C(=O)O1` [3R14S-OCHRATOXIN A] was tested. Which Vmax did it give?
Answer: Its Vmax is 4.8 pmol/h.

Question: For `C[C@]12CC[C@@H]3c4ccc(OS(=O)(=O)O)cc4CC[C@H]3[C@@H]1CCC2=O` [ESTRONE SULFURIC ACID], which Vmax is on record?
Answer: The Vmax was 40 pmol/h.

Question: `CC(C)Cc1ccc(C(C)C(=O)O)cc1` (stereo not drawn) [IBUPROFEN] was tested. Which Vmax did it give?
Answer: Its Vmax is 0.28 pmol/h.

Question: With `Nc1ccc(C(=O)NCC(=O)O)cc1` [AMINOHIPPURIC ACID] as the compound, how does the Vmax read?
Answer: Its Vmax is 4.6 pmol/h.

Question: How did the Vmax turn out when `CCCCC[C@H](O)/C=C/[C@H]1[C@H](O)CC(=O)[C@@H]1C/C=C\CCCC(=O)O` [DINOPROSTONE] was run?
Answer: Its Vmax is 0.9 pmol/h.

biological target: T1, Solute carrier family 22 member 20; assay: Inhibition of mouse Oat6-mediated [3H]ES uptake in Xenopus oocytes after 1 hr; assay type: cell-based, Oocyte; conditions: read-out: Ki

Question: For `O=C(O)CCCC(=O)O` [GLUTARATE], which Ki is on record?
Answer: The Ki was 5410 µM.

Question: How did the Ki turn out when `C[C@@H]1Cc2c(Cl)cc(C(=O)N[C@@H](Cc3ccccc3)C(=O)O)c(O)c2C(=O)O1` [3R14S-OCHRATOXIN A] was run?
Answer: The Ki was 49 µM.

Question: `CCCCCCC(=O)O` [HEPTANOATE] was tested. Which Ki did it give?
Answer: The Ki was 8.2 µM.

Question: Which Ki does the source give for `C[C@]12CC[C@@H]3c4ccc(OS(=O)(=O)O)cc4CC[C@H]3[C@@H]1CC[C@@H]2OS(=O)(=O)O` [ESTRADIOL DISULFATE] here?
Answer: The Ki was 7210 µM.

Question: `CC1(C)S[C@@H]2[C@H](NC(=O)C(C(=O)O)c3ccccc3)C(=O)N2[C@H]1C(=O)O` (stereo partly drawn) [CARBENICILLIN DISODIUM] was tested. Which Ki did it give?
Answer: Its Ki is 1330 µM.

Question: How did the Ki turn out when `O=C1OC2(c3ccc(O)cc3Oc3cc(O)ccc32)c2ccccc21` [FLUORESCEIN] was run?
Answer: Its Ki is 99 µM.

Question: `O=C(O)C(O)Cc1ccc(O)cc1` (stereo not drawn) was tested. Which Ki did it give?
Answer: The Ki was 182 µM.

Question: How did the Ki turn out when `O=C(O)/C=C/C(=O)O` [FUMARIC ACID] was run?
Answer: The Ki was greater than 30000 µM.

Question: How did the Ki turn out when `CC(=O)Oc1ccccc1C(=O)O` [ASPIRIN] was run?
Answer: The Ki was 101 µM.

Question: With `CC(O)CC(=O)O` (stereo not drawn) [3-HYDROXYBUTYRIC ACID, (+/-)-] as the compound, how does the Ki read?
Answer: The Ki was 191 µM.

Question: For `CC1(C)S[C@@H]2[C@H](NC(=O)[C@H](C(=O)O)c3ccsc3)C(=O)N2[C@H]1C(=O)O` [TICARCILLIN], which Ki is on record?
Answer: Its Ki is 533 µM.

Question: Which Ki does the source give for `CCC(=O)O` [PROPIONIC ACID] here?
Answer: Its Ki is 279 µM.

Question: With `CC(=O)C(=O)O` [PYRUVATE] as the compound, how does the Ki read?
Answer: Its Ki is 271 µM.

Question: Which Ki does the source give for `O=C(O)c1ccccc1` [BENZOIC ACID] here?
Answer: Its Ki is 13.8 µM.

Question: Which Ki does the source give for `O=C(O)C(=O)Cc1ccc(O)cc1` [4-HYDROXYPHENYLPYRUVIC ACID] here?
Answer: Its Ki is 66 µM.

Question: `O=C(O)CNC(=O)c1ccccc1` [HIPPURIC ACID] was tested. Which Ki did it give?
Answer: Its Ki is 312 µM.

Question: `CC(=O)NC(CC(=O)O)C(=O)O` (stereo not drawn) was tested. Which Ki did it give?
Answer: Its Ki is 27800 µM.

Question: With `C[C@]12CC[C@@H]3c4ccc(OS(=O)(=O)O)cc4CC[C@H]3[C@@H]1CCC2=O` [ESTRONE SULFURIC ACID] as the compound, how does the Ki read?
Answer: Its Ki is 58 µM.

Question: How did the Ki turn out when `CCCC(=O)O` [BUTYRIC ACID] was run?
Answer: Its Ki is 82 µM.

Question: `O=C(O)CCCCCCC(=O)O` [OCTANEDIOATE] was tested. Which Ki did it give?
Answer: Its Ki is 1130 µM.

Question: `CCCCCC(=O)O` [HEXANOATE] was tested. Which Ki did it give?
Answer: Its Ki is 9 µM.

Question: With `CC(C)CC(=O)O` [3-METHYLBUTANOIC ACID] as the compound, how does the Ki read?
Answer: Its Ki is 32.3 µM.

Question: `CC1(C)S[C@@H]2[C@H](NC(=O)Cc3ccccc3)C(=O)N2[C@H]1C(=O)O` (single isomer, unassigned) [PENICILLIN G SODIUM] was tested. Which Ki did it give?
Answer: Its Ki is 452 µM.

Question: `CC(C)Cc1ccc(C(C)C(=O)O)cc1` (stereo not drawn) [IBUPROFEN] was tested. Which Ki did it give?
Answer: The Ki was 1.1 µM.

Question: `CCCN(CCC)S(=O)(=O)c1ccc(C(=O)O)cc1` [PROBENECID] was tested. Which Ki did it give?
Answer: Its Ki is 8.4 µM.

Question: Which Ki does the source give for `CCCCC(CC)C(=O)O` (stereo not drawn) [2-ETHYLHEXANOIC ACID] here?
Answer: Its Ki is 6.6 µM.

Question: Which Ki does the source give for `O=C(O)c1ccccc1-c1c2cc(Br)c(=O)c(Br)c-2oc2c(Br)c(O)c(Br)cc12` here?
Answer: Its Ki is 4.4 µM.

Question: For `Nc1ccc(C(=O)NCC(=O)O)cc1` [AMINOHIPPURIC ACID], which Ki is on record?
Answer: Its Ki is 446 µM.

Question: For `O=C(O)CCCCC(=O)O` [ADIPIC ACID], which Ki is on record?
Answer: The Ki was 1580 µM.

Question: With `CC(C)C(O)C(=O)O` (stereo not drawn) as the compound, how does the Ki read?
Answer: The Ki was 315 µM.

Question: Which Ki does the source give for `CN(Cc1cnc2nc(N)nc(N)c2n1)c1ccc(C(=O)NC(CCC(=O)O)C(=O)O)cc1` (single isomer, unassigned) [METHOTREXATE] here?
Answer: The Ki was 597 µM.

Question: Which Ki does the source give for `O=C(O)c1ccccc1O` [SALICYLIC ACID] here?
Answer: Its Ki is 44 µM.

Question: `CCCCC[C@H](O)/C=C/[C@H]1[C@H](O)CC(=O)[C@@H]1C/C=C\CCCC(=O)O` [DINOPROSTONE] was tested. Which Ki did it give?
Answer: Its Ki is 18 µM.

Question: For `O=C(O)C(=O)Cc1ccccc1` [PHENYLPYRUVATE], which Ki is on record?
Answer: Its Ki is 29 µM.

same assay, conditions: read-out: pKi (converted)

Question: Which Ki does the source give for `CC(C)[C@H](O)C(=O)O` here?
Answer: Its Ki is 316 µM.

Question: With `O=C(O)/C=C/C(=O)O` [FUMARIC ACID] as the compound, how does the Ki read?
Answer: Its Ki is greater than 31600 µM.

Question: Which Ki does the source give for `CCCC[C@@H](CC)C(=O)O` here?
Answer: The Ki was 6.61 µM.

Question: How did the Ki turn out when `C[C@H](O)CC(=O)O` was run?
Answer: The Ki was 191 µM.

Question: `C[C@@H](O)CC(=O)O` [(R)-3-HYDROXYBUTANOATE] was tested. Which Ki did it give?
Answer: Its Ki is 191 µM.

Question: Which Ki does the source give for `CC(=O)N[C@@H](CC(=O)O)C(=O)O` here?
Answer: Its Ki is 27500 µM.

Question: For `O=C(O)[C@@H](O)Cc1ccc(O)cc1`, which Ki is on record?
Answer: The Ki was 182 µM.

Question: With `CCCC[C@H](CC)C(=O)O` as the compound, how does the Ki read?
Answer: The Ki was 6.61 µM.

Question: Which Ki does the source give for `CC(C)[C@@H](O)C(=O)O` [DEAMINOHYDROXYVALINE] here?
Answer: The Ki was 316 µM.
